Reference: patent publication US20150136150A1, “DURABLE SKIN MARKING COMPOSITIONS” (OP-MARKS, INC., priority 2011, published 2015)
Where “and” joins values, the source holds several entries; their conditions need not be identical. Identical values can stand only once. Like-named read-outs stand apart in the source and are kept apart here.

What was measured:
[1] = relative volatility compared to butyl acetate; cited from earlier work
[2] = Solvent miscibility and compatibility with octyl cyanoacrylate; format: physicochemical; set-up: key: V = slightly viscous; VV = viscous; VVV = very viscous; Lyr = layers; Pl = pale; Lt = light; Y = yellow; RX = reacts; Gry = grey; Brn = brown; Blk = black; settings: 3 ml solvent + 3 ml OCA
Method: (§1) Next, the solvents were tested for miscibility and compatibility with cyanoacrylate esters. Briefly, beginning with 3 ml samples each of butyl cyanoacrylate (BCA), octyl cyanoacrylate (OCA) and ethoxyethyl cyanoacrylate (EECA), 3 ml of each solvent was added drop-wise to each cyanoacrylate sample and agitated to aid mixing. Observations of the samples were taken immediately and then at regular intervals over 7 days. […] The remaining 10 solvents were ranked according to their compatibility with the cyanoacrylate esters based primarily on their compatibility with BCA over 7 days, secondarily on their compatibility with OCA, and finally on their miscibility with EECA.

[3] = Solvent compatibility with viscosity-increasing polymer, viscosity of solution: MMA; format: physicochemical; set-up: unit not given here; settings: polymer added at 5% by weight, up to 3 days agitation
[4] = cited from earlier work
[5] = Solvent compatibility with viscosity-increasing polymer, viscosity of solution: CAB; format: physicochemical; set-up: unit not given here; settings: polymer added at 5% by weight, up to 3 days agitation
rat = settings: cited from earlier work
[6] = Colorant solubility in solvent; settings: for PPM dye soluble: 10 g solvent added to 0.4 g D&C Violet #2, shaken 30 minutes, stood 30 minutes; for Dye solubility, suitability: D&C Violet #2
Method: For the remaining solvents, colorant solubility was assessed in terms of the solubility of D&C Violet #2. Briefly, 10 g of each of the solvents listed in Table 5 was added to 0.4 g of dye in 12 ml test tubes. The samples were shaken for 30 minutes then allowed to stand for 30 minutes. After standing, 5 ml of the top layer was removed and weighed into pre-weighed aluminum weigh boats where the solvent was allowed to evaporate before re-weighing.

[7] = Solvent compatibility with viscosity-increasing polymer, viscosity of solution: VEE; format: physicochemical; set-up: unit not given here; settings: polymer added at 5% by weight, up to 3 days agitation
[8] = Solvent miscibility and compatibility with ethoxyethyl cyanoacrylate; format: physicochemical; settings: 3 ml solvent + 3 ml EECA
Method: as §1

[9] = Solvent compatibility with viscosity-increasing polymer, viscosity of solution: IB; format: physicochemical; settings: for Dissolution of polyisobutylene: 5% by weight, up to 3 days; for Viscosity of solution with IB: polymer added at 5% by weight, up to 3 days agitation
[10] = Solvent miscibility and compatibility with butyl cyanoacrylate; format: physicochemical; set-up: key: V = slightly viscous; VV = viscous; VVV = very viscous; Lyr = layers; Pl = pale; Lt = light; Y = yellow; RX = reacts; Gry = grey; Brn = brown; Blk = black; settings: 3 ml solvent + 3 ml BCA
Method: as §1

[11] = Solvent miscibility and compatibility with cyanoacrylate esters (overall); format: physicochemical; settings: observations over 7 days
Method: as §1

Compound	VL (volatility) [1]	VP (vapor pressure) ([4]; at 20 ° C.)	TOX (toxicity, LD50) (rat; rat, in vivo, po) [mg/kg]	TOX (toxicity, LD50) (rat; oral dose administered to rat) [mg/kg]	further results
C1COCCO1 [1,4 Dioxane]	2.7	27@20 mmHg	–	–	OCA compatibility, 7 Day [2]: VVV; Viscosity of solution with MMA [3]: 17; Viscosity of solution with CAB [5]: 6.9
CCCCC(CC)CO (centres unmarked) [2-ethyl hexanol]	0.01	0.36@20^ mmHg	3730	–	–
COCCOCCOC [2-methoxy ethyl ether]	–	–	–	–	VP (vapor pressure) ([4]; at 25 ° C.): 3@25 mmHg
CCC(C)=O [Butanone]	2.7	–	–	2737	OCA compatibility, 1 Day [2]: V; OCA compatibility, 2 Day [2]: VV; OCA compatibility, 7 Day [2]: VV; Viscosity of solution with MMA [3]: 4.5 and 4.2; VP (vapor pressure) ([4]; at 60 ° C.): 400@60 mmHg; Viscosity of solution with CAB [5]: 1.8
CCCCOCCO [Butoxyethanol]	–	0.8@20 mmHg	–	–	–
CCCCOC(C)=O [Butyl acetate]	1	–	10768	–	–
C1CCCCC1 [Cyclohexane]	2.6	95@20 mmHg	12705	–	OCA compatibility, 1 Day [2]: V; OCA compatibility, 2 Day [2]: VV; OCA compatibility, 7 Day [2]: VV; PPM dye soluble [6]: 600 PPM; Dye solubility, suitability [6]: insufficient dye solubility; Viscosity of solution with VEE [7]: 4.5; EECA compatibility, 1 Day [8]: 2Lyr; EECA compatibility, 2 Day [8]: 2Lyr; EECA compatibility, 7 Day [8]: 2Lyr; EECA compatibility, Time 0 [8]: 2Lyr; Dissolution of polyisobutylene [9]: partially dissolve; Viscosity of solution with IB [9]: 59
O=C1CCCCC1 [Cyclohexanone]	0.29	–	1000	–	VP (vapor pressure) ([4]; at 25 ° C.): 5@25 mmHg
CC(=O)CC(C)(C)O [Diacetone alcohol]	0.14	0.95@20^ mmHg	–	4000	–
CC(Cl)CCl (centres unmarked) [Dichloropropane]	−1	40@20 mmHg	–	1947	–
CCOCC [Diethyl ether]	37.5	440@20 mmHg	–	–	Viscosity of solution with VEE [7]: 1.2
OCCOCCO [Diethylene glycol]	–	–	–	–	VP (vapor pressure) ([4]; at 92 ° C.): 1@92 mmHg
CC(C)CC(=O)CC(C)C [Diisobutyl ketone]	–	–	5750	–	–
CC(C)C(=O)C(C)C [Diisopropyl ketone]	0.17	–	3536	–	VP (vapor pressure) ([4]; at 37 ° C.): 13.3@37^ mmHg
CCOCCOC(C)=O [Ethoxyethyl acetate]	−1	2@20 mmHg	2700	–	–
CCOC(C)=O [Ethyl acetate]	6	–	–	5620	OCA compatibility, 2 Day [2]: V?; OCA compatibility, 7 Day [2]: VV; PPM dye soluble [6]: 3400 PPM; Viscosity of solution with MMA [3]: 4.7; Viscosity of solution with CAB [5]: 2.3

Compound	VL (volatility) [1]	VP (vapor pressure) ([4]; at 20 ° C.)	TOX (toxicity, LD50) (rat; rat, in vivo, po) [mg/kg]	TOX (toxicity, LD50) (rat; oral dose administered to rat) [mg/kg]	further results
CCCCCCC [Heptane]	4.3	40@20 mmHg	3200	–	OCA compatibility, 2 Day [2]: VV; OCA compatibility, 7 Day [2]: VV; Viscosity of solution with VEE [7]: 1.5; BCA compatibility, 1 Day ([10]; 1 Day): PlY; BCA compatibility, 2 Day ([10]; 2 Day): LtY; BCA compatibility, 7 Day ([10]; 7 Day): LtY; EECA compatibility, 1 Day [8]: 2Lyr; EECA compatibility, 2 Day [8]: 2Lyr; EECA compatibility, 7 Day [8]: 2Lyr; EECA compatibility, Time 0 [8]: 2Lyr; Dissolution of polyisobutylene [9]: partially dissolve; Viscosity of solution with IB [9]: 11
CCCCCC [Hexane]	–	132@20 mmHg	28710	–	PPM dye soluble [6]: 500 PPM; Dye solubility, suitability [6]: insufficient dye solubility; Viscosity of solution with VEE [7]: 0.9; EECA compatibility, 1 Day [8]: 2Lyr; EECA compatibility, 2 Day [8]: 2Lyr; EECA compatibility, 7 Day [8]: 2Lyr; EECA compatibility, Time 0 [8]: 2Lyr; Viscosity of solution with IB [9]: 7.7
C=CC(=C)C [Isoprene]	28.6	560@20 mmHg	2100	–	Reaction with the cyanoacrylate esters [11]: apparent reactions; BCA compatibility, Time 0 ([10]; time 0): RX
COCCO [Methoxy ethanol]	−1	6.2@20 mmHg	–	2370	–
COCC(C)O (centres unmarked) [Methoxy propanol]	0.3	–	–	8532	–
CC1CCCCC1 [Methyl cyclohexane]	2.99	37@20 mmHg	–	2250	–
CC(=O)CC(C)C [Methyl isobutyl ketone]	1.6	16@20 mmHg	–	1600	–
C[N+](=O)[O-] [Nitromethane]	1.39	28@20 mmHg	–	–	–
CCCOCC(C)O (centres unmarked) [PGPE (Arcosolv)]	0.21	1.7@20 mmHg	–	–	–
CCCOC(C)=O [Propyl acetate]	3.0	25@20 mmHg	6640	–	–
C1CCOC1 [THF, tetrahydrofuran]	8	129@20 mmHg	–	–	OCA compatibility, 1 Day [2]: VV; OCA compatibility, 2 Day [2]: VV; OCA compatibility, 7 Day [2]: VV; Viscosity of solution with MMA [3]: 5.3; Viscosity of solution with CAB [5]: 3.1
CC(=O)OC(C)(C)C [t-Butyl acetate]	1.5	–	–	13400	–
CC(=O)OC(C)C [t-propyl acetate]	–	–	–	6750	PPM dye soluble [6]: 2200 PPM; VP (vapor pressure) ([4]; at 25 ° C.): 59@25 mmHg
Methyl cyclohexanone	0.29	3.3@20 mmHg	–	2140	–
Xylene	0.7	9@20 mmHg	–	3910	–
